Here are results for 1 compound from paper PMC5522529, “Mechanisms of Paradoxical Activation of AMPK by the Kinase Inhibitors SU6656 and Sorafenib” (Cell Chemical Biology, 2017).

One assay concerns the target T1, α2-KD (Homo sapiens, UniProt P54646).
T1 construct: amplifying residues 1-310 with 5' BamH1 and 3' Xho1 sites; made in house; host or cells: bacteria
The experiment in a line: Inactivation of α2-KD by PP2Cα. The assay is classed as biochemical. The following applies: 5 mM ATP, AMP 2 mM, SU6656 up to 10 μM. The procedure:
Figure 5 SU6656 Promotes AMPK Activation by Binding to the Catalytic Site: Studies in Cell-Free Assays (A) Effect of increasing concentrations of SU6656 ± 1 mM AMP in the presence of 2 mM ATP on the activity of purified rat liver AMPK. (B) Effect of ATP concentration on kinase activity of α2-KD in the presence of increasing concentrations of SU6656. Results (mean, n = 2) were fitted to the equation Y= (Vmax × X)/(Km × (1 + I/Ki) + X), where Y is the activity, X is the ATP concentration, I is the concentration of SU6656, and Ki is the inhibitory constant for SU6656. The curves were generated using this equation with the best-fit values of Vmax, Km, and Ki (shared between all four curves) quoted in the main text. (C) Inhibition of phosphorylated α2-KD (WT or AT mutant) by SU6656. […] The reduced inhibition at 10 μM SU6656 may be due to the inhibitor coming out of solution, so those data were not used for curve fitting. (D and E) Effect of increasing concentrations of SU6656 on activity (D) and Thr172 phosphorylation (E) induced by LKB1 with unphosphorylated α2-KD (WT/AT mutant). Results in (D) are mean ± SEM (n = 3); and were fitted to same equation as Figure 4C. […] The complexes (which have low basal phosphorylation due to lack of LKB1 in HeLa cells) were incubated with or without a limiting amount of LKB1, AMP (200 μM) or SU6656 (3 μM) for 10 min and AMPK activity determined. […]

Assay [1] deals with T2, AMPK-γ1 R299G (RG) complexes (Homo sapiens, UniProt P54619, R299G).
T2 construct: Plasmid encoding full-length human AMPK-γ1; expressed in transfected cells; host or cells: HeLa
T2 sequence (P54619 whole entry R299G, one chain of several): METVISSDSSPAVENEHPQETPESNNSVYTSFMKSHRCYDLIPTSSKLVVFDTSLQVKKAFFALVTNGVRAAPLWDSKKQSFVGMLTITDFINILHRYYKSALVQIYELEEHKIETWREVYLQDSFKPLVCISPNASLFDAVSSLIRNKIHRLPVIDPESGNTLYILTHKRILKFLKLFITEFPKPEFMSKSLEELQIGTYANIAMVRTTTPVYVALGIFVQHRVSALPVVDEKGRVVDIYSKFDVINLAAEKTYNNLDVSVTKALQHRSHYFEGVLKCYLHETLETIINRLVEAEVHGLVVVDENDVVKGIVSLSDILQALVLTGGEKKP
The experiment in a line: Activation by LKB1 of FLAG-AMPK-γ1 R299G (RG) complexes precipitated from HeLa cells. The assay is classed as biochemical. The settings on record: RG mutant γ1; AMP 200 μM or SU6656 3 μM, 10 min. The text has this:
(B) Effect of ATP concentration on kinase activity of α2-KD in the presence of increasing concentrations of SU6656. Results (mean, n = 2) were fitted to the equation Y= (Vmax × X)/(Km × (1 + I/Ki) + X), where Y is the activity, X is the ATP concentration, I is the concentration of SU6656, and Ki is the inhibitory constant for SU6656. […] (D and E) Effect of increasing concentrations of SU6656 on activity (D) and Thr172 phosphorylation (E) induced by LKB1 with unphosphorylated α2-KD (WT/AT mutant). Results in (D) are mean ± SEM (n = 3); and were fitted to same equation as Figure 4C. […] See also Figure S3. (F) Effect of AMP (2 mM) and SU6656 on inactivation of AMPK by PP2Cα in the presence of 5 mM ATP. […] (G) Effects of AMP or SU6656 on activation (top) and Thr172 phosphorylation (bottom) by LKB1 of AMPK-γ1 complexes expressed in HeLa cells. FLAG-tagged AMPK-γ1, either wild-type (WT) or R299G mutant (RG), was expressed in HeLa cells and AMPK complexes precipitated using anti-FLAG antibody. The complexes (which have low basal phosphorylation due to lack of LKB1 in HeLa cells) were incubated with or without a limiting amount of LKB1, AMP (200 μM) or SU6656 (3 μM) for 10 min and AMPK activity determined. […]

In the next assay the target is T3, AMPK-α1 AT mutant (Homo sapiens, UniProt Q13131, A167T).
T3 construct: we expressed FLAG-tagged full-length AMPK-α1 either as the WT or the AT mutant; expressed in transfected cells; host or cells: HEK293 (transient transfection)
T3 sequence (Q13131 whole entry A167T): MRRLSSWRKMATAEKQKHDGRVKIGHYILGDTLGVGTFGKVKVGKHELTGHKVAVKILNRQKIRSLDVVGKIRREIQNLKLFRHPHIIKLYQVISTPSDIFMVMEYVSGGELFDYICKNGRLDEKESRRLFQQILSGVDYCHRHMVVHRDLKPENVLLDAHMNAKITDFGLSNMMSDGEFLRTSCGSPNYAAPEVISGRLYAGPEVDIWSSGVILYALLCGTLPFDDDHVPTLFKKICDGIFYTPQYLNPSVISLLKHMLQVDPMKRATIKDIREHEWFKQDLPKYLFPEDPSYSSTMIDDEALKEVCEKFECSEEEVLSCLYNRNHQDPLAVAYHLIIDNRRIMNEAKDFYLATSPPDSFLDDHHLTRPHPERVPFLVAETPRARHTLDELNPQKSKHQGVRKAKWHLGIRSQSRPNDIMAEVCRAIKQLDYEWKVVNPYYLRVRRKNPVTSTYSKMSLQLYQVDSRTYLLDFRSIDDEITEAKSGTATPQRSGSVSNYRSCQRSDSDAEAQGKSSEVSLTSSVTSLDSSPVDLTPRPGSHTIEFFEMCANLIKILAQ
T3 sequence (P54619 whole entry partner): as the sequence (P54619 whole entry R299G, one chain of several) above, with G299R counted along it
Nature of the assay: AMPK activity of FLAG-tagged AMPK-α1 AT mutant expressed in HEK293 cells. The assay is classed as cell-based. The following applies: AT mutant FLAG-α1, 1 hr. The text has this: The α1-KD was precipitated using anti-FLAG and endogenous AMPK complexes using anti-α1 antibody, and activity determined. Results (mean ± SD, n = 2) are expressed relative to activities in DMSO controls. (B) Western blots (n = 2) using the indicated antibodies; samples from experiment in (A). (C) DNAs encoding FLAG-tagged AMPK-α1 (WT or AT mutant) were expressed by transient transfection in HEK293 cells, the cells treated with increasing concentrations of SU6656 for 1 hr, AMPK complexes precipitated with anti-FLAG, and activity measured. Results (mean ± SD, n = 3) are expressed relative to the DMSO control. […] Results (mean ± SD, n = 3) are expressed relative to the DMSO control. **p < 0.01, ***p < 0.001, ****p < 0.0001, ^†††p < 0.001; ns, not significant.
To confirm that it acted by binding at the catalytic site, we expressed FLAG-tagged full-length AMPK-α1 either as the WT or the AT mutant.

T1 sequence (P54646 1-310): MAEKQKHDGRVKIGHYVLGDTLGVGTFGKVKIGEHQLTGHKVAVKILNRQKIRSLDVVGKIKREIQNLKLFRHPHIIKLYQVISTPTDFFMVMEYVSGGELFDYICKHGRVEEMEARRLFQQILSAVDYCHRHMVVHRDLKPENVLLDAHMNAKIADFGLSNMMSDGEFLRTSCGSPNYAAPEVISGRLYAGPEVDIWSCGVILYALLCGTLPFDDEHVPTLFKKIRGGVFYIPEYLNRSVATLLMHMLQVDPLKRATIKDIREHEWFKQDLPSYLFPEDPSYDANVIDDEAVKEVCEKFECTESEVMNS

For `CN(C)S(=O)(=O)c1ccc2c(c1)/C(=C/c1cc3c([nH]1)CCCC3)C(=O)N2` [SU6656], the “protection against inactivation by PP2Cα” value on α2-KD is on record as “did not protect against inactivation”. Moreover, the “activation and Thr172 phosphorylation by LKB1” value in assay [1] is “preserved”. Also, the AMPK activity entry at AMPK-α1 AT mutant is reported as “greatly reduced”.
